Source: PMC5891627, “Binding Specificity of Two PBPs in the Yellow Peach Moth Conogethes punctiferalis (Guenée)” (Frontiers in Physiology, 2018)
Like-named read-outs stand apart in the source and are kept apart here.

What was measured:
CpunPBP2 = CpunPBP2 (Conogethes punctiferalis, UniProt A0A1D6X8W8); assay: Fluorescence displacement (competitive, 1-NPN) binding assay; conditions: for IC50: 1-NPN 2 μM as fluorescent reporter, 2 μM protein; for binding affinity to CpunPBP2 (in words): ranking among the 24 tested ligands
CpunPBP2, sequence (A0A1D6X8W8 entry or part of it): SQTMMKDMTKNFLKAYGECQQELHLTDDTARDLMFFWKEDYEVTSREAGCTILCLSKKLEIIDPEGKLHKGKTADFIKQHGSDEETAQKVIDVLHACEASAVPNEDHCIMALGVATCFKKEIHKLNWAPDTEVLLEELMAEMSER
Description: (§1) The fluorescence intensity was recorded on a FluoroMax-4 spectrophotometer (Horiba Scientific, USA) at room temperature using a 1 cm light path fluorimeter quartz cuvette. The fluorescent probe N-phenyl-1-naphthylamine (1-NPN) and all the tested chemicals were dissolved in HPLC purity methanol. The final concentration was prepared 1 mM. […] The fluorescence of 1-NPN was excited at 337 nm and emission spectra were recorded between […]. […] The GraphPad Prism 5 (GraphPad Software, Inc.) was used to estimate the K1−NPN (KD of complex protein /1-NPN) values by nonlinear regression for a unique site of binding. It was assumed that the proteins were 100% active, with a stoichiometry of 1:1 (protein:ligand) at saturation. […] In the equation, [1-NPN] is the free concentration of 1-NPN, and K1−NPN is the dissociation constant of the complex protein /1-NPN.

CpunPBP5 = CpunPBP5 (Conogethes punctiferalis, UniProt A0A0M4FIS7); assay: as above; conditions: for binding affinity to CpunPBP5 (in words): ranking among the 24 tested ligands
CpunPBP5, sequence (A0A0M4FIS7 entry or part of it): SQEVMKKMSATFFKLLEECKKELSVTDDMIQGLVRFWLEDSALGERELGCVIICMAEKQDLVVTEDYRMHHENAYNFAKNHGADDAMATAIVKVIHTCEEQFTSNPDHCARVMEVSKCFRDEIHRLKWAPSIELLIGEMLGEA
Description: as §1

[1] = pH = 7.4, calculated from IC50: KD = [IC50]/(1+[1-NPN]/K1-NPN), read-out: KD (μM), calculated dissociation constant
[2] = ratio of fluorescence intensity at the pheromone concentration of 6 mM to the initial fluorescence intensity, pH = 7.4
[3] = pH = 7.4, 1-NPN 2 μM as fluorescent reporter, 2 μM protein, read-out: IC50
[4] = read-out: KD (μM), calculated dissociation constant, pH = 7.4, calculated from IC50: KD = [IC50]/(1+[1-NPN]/K1-NPN)
[5] = ratio of fluorescence intensity at the pheromone concentration of 6 mM to the initial fluorescence intensity, pH = 7.4, read-out: Int (%)

Compound | IC50 (CpunPBP2; pH = 7.4, read-out: IC50) [µM] | Kd (CpunPBP2; [1]) [µM] | Int (%) (CpunPBP2; [2]) | IC50 (CpunPBP5; [3]) [µM] | Kd (CpunPBP5; [1]) [µM] | Int (%) (CpunPBP5; [2]) | Kd (CpunPBP2; read-out: dissociation constant (KD) of CpunPBP2/1-NPN complex, direct titration of 2 μM protein with 1-NPN, Scatchard plot, pH 7.4) [µM] | Kd (CpunPBP5) [µM] | activity at 6000 µM (CpunPBP2; pH 7.4, read-out: Int (%)) [%] | IC50 (CpunPBP2; pH = 7.4) [µM] | binding affinity to CpunPBP2 (in words) (CpunPBP2) | Kd (CpunPBP2; [4]) [µM] | IC50 (CpunPBP5) [µM] | activity at 6000 µM (CpunPBP5; pH 7.4, read-out: Int (%)) [%] | binding affinity to CpunPBP5 (in words) (CpunPBP5) | activity at 6000 µM (CpunPBP2; [5]) [%] | activity at 6000 µM (CpunPBP5; [5]) [%]
C=C1CC/C=C(\C)CC[C@@H]2[C@@H]1CC2(C)C (relative stereo) [Trans-caryopyllene] | 6.17 ± 0.14 | 3.58 ± 0.08 | 50.42 ± 0.51 | 4.67 ± 0.02 | 3.78 ± 0.01 | 45.87 ± 0.10 |  |  |  |  |  |  |  |  |  |  | 
c1ccc(Nc2cccc3ccccc23)cc1 [1-NPN, N-phenyl-1-naphthylamine, reference compound] |  |  |  |  |  |  | 0.76 ± 0.1 | 0.58 ± 0.04 |  |  |  |  |  |  |  |  | 
CCCCCCCCCCCCCCO [1-tetrodecanol] |  |  |  |  |  |  |  | 2.86 ± 0.02 | 45.55 ± 0.38 | 3.94 ± 0.14 | highest binding affinity | 2.28 ± 0.08 | 3.53 ± 0.03 | 42.29 ± 0.12 | highest binding affinity |  | 
CCC(C)CCCC(C)C (centres unmarked) [2,6-Dimethyloctane] | 11 ± 0.32 | 6.38 ± 0.19 |  | 8.2 ± 0.1 | 6.64 ± 0.08 |  |  |  |  |  |  |  |  |  |  | 78.17 ± 0.43 | 54.82 ± 0.07
CCCCCCCCCC=O [Decanal] | 13.1 ± 0.24 | 7.62 ± 0.14 |  | 15.2 ± 0.6 | 12.5 ± 0.49 |  |  |  |  |  |  |  |  |  |  | 72.86 ± 0.24 | 72.6 ± 0.11
CCCCCCC=O [Heptanal] | 17.9 ± 0.83 | 10.4 ± 0.48 |  | 19.7 ± 0.95 | 15.9 ± 0.77 |  |  |  |  |  |  |  |  |  | minimum binding abilities | 84.85 ± 0.31 | 68.32 ± 0.21
C=C(C)[C@H]1CC=C(C)CC1 [Limonene] | 11.9 ± 0.67 | 6.92 ± 0.39 | 82.86 ± 0.44 | 10.7 ± 0.22 | 8.67 ± 0.18 | 60.13 ± 0.09 |  |  |  |  |  |  |  |  |  |  | 
C=CC(C)(O)CCC=C(C)C (centres unmarked) [Linalool] |  |  |  |  |  |  |  | 13.7 ± 1.15 |  | 22 ± 4.72 | minimum binding affinities | 12.8 ± 2.74 | 17 ± 1.42 |  | minimum binding abilities | 72.27 ± 0.43 | 66.92 ± 0.13
CCCCCCCCC=O [Nonanal] | 14.7 ± 0.47 | 8.5 ± 0.27 |  | 13.1 ± 0.62 | 10.6 ± 0.78 |  |  |  |  |  |  |  |  |  |  | 77.22 ± 0.07 | 65.83 ± 0.28
CCCCCCCCCCCCCCCC(=O)O [Palmitic acid] | 14.2 ± 0.71 | 8.27 ± 0.41 |  | 7.27 ± 0.06 | 5.89 ± 0.47 |  |  |  |  |  |  |  |  |  |  | 73.64 ± 0.06 | 53.54 ± 0.01
CCCCCC/C=C/C=O [Trans-2-nonenal] | 22.3 ± 1.3 | 12.9 ± 0.76 |  | 9.62 ± 0.58 | 7.79 ± 0.48 |  |  |  |  |  | minimum binding affinities |  |  |  |  | 86.46 ± 0.38 | 59 ± 0.62
CCCCC/C=C/C=O [Trans-2-octanal] | 12.3 ± 0.84 | 7.15 ± 0.49 | 62.32 ± 0.13 | 12.2 ± 0.66 | 9.89 ± 0.53 | 62.12 ± 0.30 |  |  |  |  |  |  |  |  |  |  | 
CCCCCCCCCCC=O [Undecanal] | 7.49 ± 0.15 | 4.34 ± 0.08 |  | 8.67 ± 0.04 | 7.01 ± 0.03 |  |  |  |  |  |  |  |  |  |  | 56.59 ± 0.32 | 58.66 ± 0.31
COc1cc(C=O)ccc1O [Vanillin] |  |  |  |  |  |  |  | 20.4 ± 2.35 |  | 19.9 ± 1 |  | 11.6 ± 0.58 | 25.1 ± 2.9 |  | minimum binding abilities | 85.4 ± 0.31 | 71.19 ± 0.36
CC/C=C\CCO [cis-3-hexen-1-ol] |  |  |  |  |  |  |  | 14.9 ± 1.12 | 89.59 ± 0.25 | 34.5 ± 3.2 | minimum binding affinities | 20 ± 1.85 | 18.4 ± 1.38 | 66.81 ± 0.61 | minimum binding abilities |  | 
CC(=O)/C=C/C1C(C)=CCCC1(C)C (stereo not drawn) [α-ionone] |  |  |  |  |  |  |  | 6.79 ± 0.08 | 61.8 ± 1.49 | 10.7 ± 0.97 |  | 6.22 ± 0.56 | 8.39 ± 0.1 | 55.28 ± 0.1 |  |  | 
CC1=CCC2CC1C2(C)C (stereo not drawn) [α-pinene] |  |  |  |  |  |  |  | 11.4 ± 1.02 |  | 27.9 ± 4.3 | minimum binding affinities | 16.2 ± 2.5 | 14.1 ± 1.26 |  |  | 77.7 ± 0.33 | 74.88 ± 0.39
C=CC(=C)CC/C=C(\C)CCC=C(C)C [β-farnesene] | 2.82 ± 0.19 | 1.63 ± 0.11 | 40.51 ± 0.78 | 5.25 ± 0.02 | 4.25 ± 0.02 | 47.47 ± 0.12 |  |  |  |  |  |  |  |  |  |  | 
CC(=O)/C=C/C1=C(C)CCCC1(C)C [β-ionone] |  |  |  |  |  |  |  | 9.85 ± 0.38 | 88.04 ± 0.58 | 17.3 ± 0.84 |  | 10.1 ± 0.49 | 12.2 ± 0.47 | 62.6 ± 0.79 |  |  | 
C=C1CCC2CC1C2(C)C (stereo not drawn) [β-pinene] |  |  |  |  |  |  |  | 9.3 ± 0.31 | 80.45 ± 0.68 | 21 ± 2.26 | minimum binding affinities | 12.2 ± 1.31 | 11.5 ± 0.39 | 68.43 ± 0.63 |  |  | 
Hexenal | 34.56 ± 0.12 | 20 ± 0.68 | 83.11 ± 0.15 | 11.7 ± 0.66 | 9.44 ± 0.53 | 60.86 ± 0.49 |  |  |  |  | minimum binding affinities |  |  |  |  |  | 
